Structures can show the parent of a compound that is named as a salt.
How the values were obtained:
[1] = system: human lung cancer NCI-H23 cells; test: In vivo pharmacodynamics in the NCI-H23 subcutaneous graft tumor model; design: species or system CB.17/SCID mouse; conditions: for TGI (%) / Tumor change (%): 14 days after administration; for TGI (%) / Tumor change (%) / Tumor volume (mm^3) day 0 / Tumor volume (mm^3) day 14: 12.5 mg/kg PO QD + Cisplatin 1.5 mg/kg IP QW, NCI-H23 xenograft, CB.17/SCID mice; for body weight of mice after drug administration / decrease in tumor volume compared to the Cisplatin+VX-970 group: combination with Cisplatin; for body weight of mice after drug administration: no difference in body weight loss between the groups (FIG. 1); for decrease in tumor volume compared to the Cisplatin+VX-970 group: p<0.05 in T-test (FIGS. 2 and 3); for Tumor volume (mm^3) day 0: day 0 (start of administration); for Tumor volume (mm^3) day 14: 2 weeks
Description: • 1, cell culture: human lung cancer NCI-H23 cells (ATCC, Item No.: CRL-5800) are performed with an in vitro monolayer culture. […] Trypsin-EDTA was used for conventional digestion and treatment of passaging twice a week. When the cell saturation is […] and the number meets the requirement, the cells are collected, counted and inoculated. • 2, Animals: CB.17/SCID mouse, female, 6-8 weeks old, weighing 18-22 grams. A total of 84 mice are needed, which are provided by Beijing Viton Lihua Laboratory Animal Technology Co., Ltd. or equivalent qualified suppliers. • 3.
• 4. Tumor inoculation: 0.2 mL (10×10^6 cells) of NCI-H23 cells (plus stromal gel, volume ratio 1:1) were subcutaneously inoculated into the right back of each mouse. Mice are grouped for drug administration when the average tumor volume reached about 200 mm^3. Animals were weighed before dosing and tumor volumes were measured. Groups were randomized according to tumor volume (randomized area group design).
• 1 ? The experimental index is to examine whether the tumor growth is inhibited, delayed or cured. […] Calculation of Tumor change (%): Tumor change (%)=(average tumor volume at the end of administration of a treatment group−average tumor volume at the beginning of administration of a treatment group)/average tumor volume at the beginning of administration of a treatment group×100%. Tumor change (%): less than 0, non-growth of the tumor in the mice after the drug administration, and the existence of inhibition. • 6.

ATR kinase = ATR kinase (Homo sapiens (Human), UniProt Q13535); test: ATR enzyme activity inhibition assay (HTRF); assay type: biochemical; conditions: p53 substrate, full-length ATR enzyme
Chain of ATR kinase (Q13535 whole entry): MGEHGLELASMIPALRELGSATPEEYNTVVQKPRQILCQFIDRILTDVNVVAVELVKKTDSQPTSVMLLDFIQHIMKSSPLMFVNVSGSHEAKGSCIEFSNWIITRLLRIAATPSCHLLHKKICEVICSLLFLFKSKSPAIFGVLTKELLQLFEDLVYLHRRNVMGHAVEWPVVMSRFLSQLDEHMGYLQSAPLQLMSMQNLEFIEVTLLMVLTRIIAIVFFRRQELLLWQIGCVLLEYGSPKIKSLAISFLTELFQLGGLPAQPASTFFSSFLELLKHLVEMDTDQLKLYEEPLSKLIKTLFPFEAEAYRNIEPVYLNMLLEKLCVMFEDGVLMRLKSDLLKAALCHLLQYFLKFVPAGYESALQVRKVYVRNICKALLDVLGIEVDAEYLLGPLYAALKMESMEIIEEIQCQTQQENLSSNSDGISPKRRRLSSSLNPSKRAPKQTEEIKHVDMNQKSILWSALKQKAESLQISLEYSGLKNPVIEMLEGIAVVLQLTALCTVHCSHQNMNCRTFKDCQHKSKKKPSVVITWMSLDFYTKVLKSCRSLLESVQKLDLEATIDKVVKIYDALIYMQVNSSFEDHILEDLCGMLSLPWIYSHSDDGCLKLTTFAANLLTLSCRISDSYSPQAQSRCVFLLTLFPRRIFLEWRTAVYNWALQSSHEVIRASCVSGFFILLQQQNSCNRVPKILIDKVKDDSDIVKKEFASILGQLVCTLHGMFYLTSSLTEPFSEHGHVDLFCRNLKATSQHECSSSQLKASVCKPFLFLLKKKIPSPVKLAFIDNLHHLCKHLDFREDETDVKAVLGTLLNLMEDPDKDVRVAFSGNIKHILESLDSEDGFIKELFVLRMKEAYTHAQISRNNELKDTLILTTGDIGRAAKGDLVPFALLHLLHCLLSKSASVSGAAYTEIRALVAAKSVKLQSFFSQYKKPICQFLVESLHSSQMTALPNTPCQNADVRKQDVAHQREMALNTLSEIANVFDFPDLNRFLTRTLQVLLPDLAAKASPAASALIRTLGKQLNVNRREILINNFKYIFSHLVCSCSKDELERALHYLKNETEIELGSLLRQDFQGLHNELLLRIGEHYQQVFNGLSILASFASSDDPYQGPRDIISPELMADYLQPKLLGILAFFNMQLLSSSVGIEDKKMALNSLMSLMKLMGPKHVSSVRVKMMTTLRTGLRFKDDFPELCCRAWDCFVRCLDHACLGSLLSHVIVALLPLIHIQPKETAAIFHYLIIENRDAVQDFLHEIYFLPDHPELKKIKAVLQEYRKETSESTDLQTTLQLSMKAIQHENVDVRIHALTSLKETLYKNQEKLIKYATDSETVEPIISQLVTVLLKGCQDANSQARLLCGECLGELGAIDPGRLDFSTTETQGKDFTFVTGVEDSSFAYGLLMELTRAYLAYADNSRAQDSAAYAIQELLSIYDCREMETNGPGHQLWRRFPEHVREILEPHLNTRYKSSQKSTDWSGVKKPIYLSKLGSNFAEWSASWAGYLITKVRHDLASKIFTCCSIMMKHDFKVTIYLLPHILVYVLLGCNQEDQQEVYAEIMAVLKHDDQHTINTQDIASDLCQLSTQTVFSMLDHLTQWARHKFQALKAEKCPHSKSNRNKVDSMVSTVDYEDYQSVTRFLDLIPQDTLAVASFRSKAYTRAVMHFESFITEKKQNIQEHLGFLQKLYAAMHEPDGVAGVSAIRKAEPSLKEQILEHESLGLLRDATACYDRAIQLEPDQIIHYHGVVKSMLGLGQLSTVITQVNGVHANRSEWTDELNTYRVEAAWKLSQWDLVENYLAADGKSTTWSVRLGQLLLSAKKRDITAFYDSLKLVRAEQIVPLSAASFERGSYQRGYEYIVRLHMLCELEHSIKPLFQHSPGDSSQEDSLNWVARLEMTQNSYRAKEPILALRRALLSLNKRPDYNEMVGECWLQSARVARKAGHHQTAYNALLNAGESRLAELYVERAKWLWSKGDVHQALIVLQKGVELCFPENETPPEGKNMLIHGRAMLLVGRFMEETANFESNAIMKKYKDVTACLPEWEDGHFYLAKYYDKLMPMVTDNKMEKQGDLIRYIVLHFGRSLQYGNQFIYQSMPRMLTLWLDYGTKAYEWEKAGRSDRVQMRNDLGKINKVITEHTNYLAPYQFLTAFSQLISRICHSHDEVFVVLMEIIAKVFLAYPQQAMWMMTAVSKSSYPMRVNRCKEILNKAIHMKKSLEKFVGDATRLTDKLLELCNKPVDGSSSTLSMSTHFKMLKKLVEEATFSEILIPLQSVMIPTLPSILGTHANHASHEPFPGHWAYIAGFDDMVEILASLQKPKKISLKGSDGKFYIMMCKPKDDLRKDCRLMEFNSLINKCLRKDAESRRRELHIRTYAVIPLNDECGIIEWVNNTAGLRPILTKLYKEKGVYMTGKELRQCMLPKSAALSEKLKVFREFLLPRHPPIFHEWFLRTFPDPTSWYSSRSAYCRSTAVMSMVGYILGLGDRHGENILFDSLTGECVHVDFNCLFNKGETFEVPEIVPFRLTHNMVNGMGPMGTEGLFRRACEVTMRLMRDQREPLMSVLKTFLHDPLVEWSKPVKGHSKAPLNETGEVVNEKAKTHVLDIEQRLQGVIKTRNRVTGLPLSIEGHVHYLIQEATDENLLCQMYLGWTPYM
Chain of ATR kinase (Q8WXE1 whole entry partner): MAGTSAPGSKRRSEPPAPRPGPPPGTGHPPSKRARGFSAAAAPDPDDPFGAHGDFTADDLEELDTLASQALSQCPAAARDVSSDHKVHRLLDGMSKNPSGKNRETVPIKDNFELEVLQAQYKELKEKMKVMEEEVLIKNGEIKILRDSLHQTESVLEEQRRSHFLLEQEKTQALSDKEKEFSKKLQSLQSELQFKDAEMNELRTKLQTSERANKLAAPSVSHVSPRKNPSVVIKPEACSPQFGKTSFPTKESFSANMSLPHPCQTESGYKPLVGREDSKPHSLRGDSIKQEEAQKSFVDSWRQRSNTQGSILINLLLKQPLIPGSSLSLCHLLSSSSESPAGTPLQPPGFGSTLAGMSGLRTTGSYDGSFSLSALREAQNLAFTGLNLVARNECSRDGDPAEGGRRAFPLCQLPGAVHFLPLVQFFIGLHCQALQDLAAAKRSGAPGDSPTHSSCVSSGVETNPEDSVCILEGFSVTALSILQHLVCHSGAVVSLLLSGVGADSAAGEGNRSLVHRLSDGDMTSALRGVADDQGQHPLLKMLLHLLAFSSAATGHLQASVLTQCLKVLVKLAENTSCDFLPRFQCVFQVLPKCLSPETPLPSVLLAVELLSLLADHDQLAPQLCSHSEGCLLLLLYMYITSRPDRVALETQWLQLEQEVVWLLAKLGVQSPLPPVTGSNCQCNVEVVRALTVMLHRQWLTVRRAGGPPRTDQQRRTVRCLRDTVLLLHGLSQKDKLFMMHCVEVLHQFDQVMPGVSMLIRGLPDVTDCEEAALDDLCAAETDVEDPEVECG
Description: The inhibitory ability to ATR kinase for selected compounds was tested by the HTRF (Homogeneous Time-Resolved Fluorescence). In the reaction system, After the substrate p53 is phosphorylated by ATR, the anti-phospho-p53-Eu that serves as an energy donor and specifically binds to the phosphorylation site on p53 is added. Then, the anti-GST-d2 as an energy acceptor that specifically binds to the GST tag carried on p53 is added. […] The IC50 of the sample to be tested can be obtained through graphing and calculation.
Prepare various buffer systems required for the experiment: • 1. […] Prepare detection buffer: Dilute each of the anti-phospho-p53-Eu cryptate (Cisbio, Cat #61P08KA) and anti-GST-d2 (Cisbio, Cat #61GSTDLB) to 1 unit using HTRF detection buffer (Cisbio, Cat #62SDBRDF).
Powdered compounds were dissolved in DMSO to from a stock solution at a concentration of 10 mM. The solution of compounds to be tested at a concentration of […] was performed a 3-fold dilution for 10 concentrations with DMSO. […] 5 μL of ATR was added to each well accordingly. Each well is incubated at 25° C. for 10 min, added with 5 μL of reaction substrate, incubated at 25° C. for 90 min and added with 10 μL of detection solution. […] The inhibition curves of the compounds were made by the four-parameter […] regression equation of XLfit software, and the inhibition rates of the compounds were calculated.

| Molecule | TGI (%) [1] | Tumor change (%) [1] | body weight of mice after drug administration [1] | decrease in tumor volume compared to the Cisplatin+VX-970 group [1] | Tumor volume (mm^3) day 0 [1] | Tumor volume (mm^3) day 14 [1] | IC50 (ATR kinase) | Tumor change (%) ([1]; listed as VX970) |
| --- | --- | --- | --- | --- | --- | --- | --- | --- |
| (R)-5-(5-amino-6-(5-(4-((methylamino)methylene)phenyl)-1,3,4-oxadiazol-2-yl)pyrazin-2-yl)-3-fluoro-2,2-dimethyl-2,3-dihydrobenzo[b]thiophene 1,1-dioxide or (S)-5-(5-amino-6-(5-(4-((methylamino)methylene)phenyl)-1,3,4-oxadiazol-2-yl)pyrazin-2-yl)-3-fluoro-2,2-dimethyl-2,3-dihydrobenzo[b]thiophene 1,1-dioxide [Example 33-1 or 33-2] | 245% | −66% | decrease in body weight | more obvious decrease in tumor volume | 267 mm^3 | 92 mm^3 | 0.83 nM |  |
| (R)-5-(5-amino-6-(3-(4-((methylamino)methyl)phenyl)isoxazol-5-yl-4-deuterium)pyrazin-2-yl)-3-fluoro-2,2-dimethyl-2,3-dihydrobenzo[b]thiophene 1,1-dioxide or (S)-5-(5-amino-6-(3-(4-((methylamino)methyl)phenyl)isoxazol-5-yl-4-deuterium)pyrazin-2-yl)-3-fluoro-2,2-dimethyl-2,3-dihydrobenzo[b]thiophene 1,1-dioxide [Example 38-1 or 38-2] | 159% | −29% | decrease in body weight | more obvious decrease in tumor volume | 252 mm^3 | 180 mm^3 | 0.75 nM |  |
| CNCc1ccc(-c2cc(-c3nc(-c4ccc(S(=O)(=O)C(C)C)cc4)cnc3N)on2)cc1 [VX-970, Berzosertib, reference compound] | 128% | −12% | decrease in body weight |  | 266 mm^3 | 231 mm^3 |  | −13% |
| CNC(=N)Nc1ccc(-c2cc(-c3nc(-c4ccc(S(=O)(=O)C(C)C)cc4)cnc3N)on2)c(F)c1 [Example 20, 1-(4-(5-(3-amino-6-(4-(isopropylsulfonyl)phenyl)pyrazin-2-yl)isoxazol-3-yl)-3-fluorophenyl)-3-methylguanidine dihydrochloride] |  |  |  |  |  |  | 1.81 nM |  |
| CC(C)S(=O)(=O)c1ccc(-c2cnc(N)c(-c3cc(-c4ccc5[nH]nnc5c4)no3)n2)cc1 [Example 3, 3-(3-(1H-benzo[d][1,2,3]triazol-5-yl)isoxazol-5-yl)-5-(4-(isopropylsulfonyl)phenyl)pyrazin-2-amine] |  |  |  |  |  |  | 1.6 nM |  |
| CC(C)S(=O)(=O)c1ccc(-c2cnc(N)c(-c3cc(-c4ccc(CNC(=O)NC5CC5)cc4)no3)n2)cc1 [Example 5, 1-(4-(5-(3-amino-6-(4-(isopropylsulfonyl)phenyl)pyrazin-2-yl)isoxazol-3-yl)benzyl)-3-cyclopropylurea] |  |  |  |  |  |  | 2.32 nM |  |

From patent publication US20250026742A1 (SUZHOU ARK BIOPHARMACEUTICAL CO., LTD., priority 2021, published 2025)
